Results reported in patent US20240310368A1, “DETECTION KIT FOR CATECHOLAMINES AND METABOLITES THEREOF IN PLASMA/URINE AND DETECTION METHOD THEREOF” (Calibra Scientific, Inc., priority 2023, published 2024).
Where “and” joins values, the source holds several entries; their conditions need not be identical. Identical values can stand only once.

Legend:
[1] = Stabilizing effect of accelerated stabilizers (37° C., 14 days) on standard products and quality control products then accelerated at 30° C. for 2 days; type: physicochemical; settings: for Relative deviation %: 2 days at 30° C. vs Control; for concentration in standard products and quality control products, 2 days at 30° C. / concentration in standard products and quality control products, Control: single replicates
Experimental: Standard products of epinephrine, norepinephrine, dopamine, metanephrine, normetanephrine and 3-methoxytyramine were prepared into mixed solutions, and blank plasma containing a stabilizer was used as a matrix to prepare standard products and quality control products.
(§1) In the present example, the stabilizing effect of the stabilizers on plasma samples, standard products and quality control products after acceleration was further verified. The stabilizers were accelerated at 37° C. for 14 days (equivalent to 1 year at 2-8° C.), added into the plasma samples in proportions and then accelerated at 30° C. for 1.5 days (equivalent to 12 months at −30° C. to −15° C.). The stabilizers were accelerated at 37° C. for 14 days (equivalent to 1 year at 2-8° C.), added into the standard products and the quality control products in proportions and then accelerated at 30° C. for 2 days (equivalent to 18 months at −30° C. to −15° C.).

[2] = Stabilizing effect of accelerated stabilizers (37° C., 14 days) on plasma samples then accelerated at 30° C. for 1.5 days; type: physicochemical, human; settings: for Relative deviation %: Accelerate vs Control; for concentration in plasma samples, Control / concentration in plasma samples, Accelerate: single replicates; for concentration in plasma samples, Accelerate: stabilizer accelerated 37° C. 14 days, plasma then accelerated at 30° C. for 1.5 days
Experimental: as §1

[3] = Acceleration test of plasma samples with stabilizers (30° C. for 1.5 days, against control plasma stored at −95° C. to −65° C.), LC-MS/MS Area/IS Area
Experimental: Samples were collected in EDTA-anticoagulant blood collection tubes and then rapidly subjected to […] centrifugation at 2-8° C. to separate plasma. 0.95 mL of the plasma was transferred into centrifuge tubes. After 50 μL of the stabilizer was added for uniform mixing, the plasma samples were stored by refrigeration or freezing.
• (1) 500 μL of plasma/urine samples to be tested were taken, and 50 μL of the internal standard solution and 500 μL of the buffer solution were sequentially added for vertex mixing to obtain diluted samples. • (2) The magnetic medium composite material suspension was subjected to full vortex treatment to reach a suspension state, and then subsequent operation was performed. • (3) Different reagents were added into wells of a preprocessing plate according to the follow operation: adding 200 μL of the magnetic medium composite material suspension in column 1, adding 500 μL of the balance solution in column 2, adding 850 μL of the diluted samples in column 3, adding 500 μL of the balance solution in column 4, adding 200 μL of a rinsing solution in column 5, and adding 100 μL of the elution solution in column 6. • (4) An extraction operation procedure was carried out, as shown in Table 5.
Each group of the plasma samples were stored at 30° C. for 1.5 days, and plasma without addition of any compounds stored at −95° C. to −65° C. was used as a control. […] The stabilizing effect of the single-component stabilizers on the plasma samples was investigated.
The stabilizers were mixed with plasma (the volume ratio of the stabilizers to plasma samples was 1:19), and high concentration plasma samples and low concentration plasma samples were prepared by the method provided in Example 1.
With plasma stored at −95° C. to −65° C. as a control, the above plasma samples were separately stored at 30° C. for 1.5 days to investigate the stability. […]

[4] = samples at a high concentration level
[5] = samples at a low concentration level

Row | SMILES | Relative deviation % ([1]; High concentration level) [%] | average concentration, 2 days at 30° C. ([1]; High concentration level) [pg/mL] | concentration in standard products and quality control products, 2 days at 30° C. ([1]; High concentration level) | average concentration, Control ([1]; High concentration level) [pg/mL] | concentration in standard products and quality control products, Control ([1]; High concentration level) | Relative deviation % ([1]; Low concentration level) [%] | average concentration, 2 days at 30° C. ([1]; Low concentration level) [pg/mL] | concentration in standard products and quality control products, 2 days at 30° C. ([1]; Low concentration level) | average concentration, Control ([1]; Low concentration level) [pg/mL] | concentration in standard products and quality control products, Control ([1]; Low concentration level) | Relative deviation % ([1]; Medium concentration level) [%] | average concentration, 2 days at 30° C. ([1]; Medium concentration level) [pg/mL] | concentration in standard products and quality control products, 2 days at 30° C. ([1]; Medium concentration level) | average concentration, Control ([1]; Medium concentration level) [pg/mL] | concentration in standard products and quality control products, Control ([1]; Medium concentration level) | Relative deviation % [2, 4] [%] | concentration in plasma samples, Control [2, 4] | concentration in plasma samples, Accelerate [2, 4] | Relative deviation % [2, 5] [%] | concentration in plasma samples, Control [2, 5] | other results
1 | NCCc1ccc(O)c(O)c1 [DA] | 0.3 | 1485.59 | 1.46403 ng/mL and 1.43079 ng/mL and 1.56195 ng/mL | 1481.12 | 1.46201 ng/mL and 1.49448 ng/mL and 1.48688 ng/mL | −0.29 | 17.86 | 0.01762 ng/mL and 0.01837 ng/mL and 0.01758 ng/mL | 17.91 | 0.01722 ng/mL and 0.0181 ng/mL and 0.01841 ng/mL | −2.2 | 294.46 | 0.2821 ng/mL and 0.31535 ng/mL and 0.28595 ng/mL | 301.09 | 0.30826 ng/mL and 0.30148 ng/mL and 0.29352 ng/mL | −2.0 | 0.55903 ng/mL and 0.52998 ng/mL and 0.57132 ng/mL | 0.55049 ng/mL and 0.5487 ng/mL and 0.52712 ng/mL | −0.8 | 0.0743 ng/mL and 0.09053 ng/mL and 0.08768 ng/mL | concentration in plasma samples, Accelerate [2, 5]: 0.08786 ng/mL and 0.07829 ng/mL and 0.08442 ng/mL
2 | COc1cc(CCN)ccc1O [Group 3-MT] | −3.54 | 1001.8 | 1.00258 ng/mL and 0.99459 ng/mL and 1.00823 ng/mL | 1038.58 | 1.01486 ng/mL and 1.01865 ng/mL and 1.08223 ng/mL | −8.93 | 10.93 | 0.01106 ng/mL and 0.01049 ng/mL and 0.01124 ng/mL | 12 | 0.01245 ng/mL and 0.01066 ng/mL and 0.0129 ng/mL | −4.98 | 182.01 | 0.16702 ng/mL and 0.19198 ng/mL and 0.18703 ng/mL | 191.55 | 0.19324 ng/mL and 0.19663 ng/mL and 0.18479 ng/mL | −2.0 | 0.38458 ng/mL and 0.38086 ng/mL and 0.37856 ng/mL | 0.35799 ng/mL and 0.37926 ng/mL and 0.38345 ng/mL | 0.6 | 0.06389 ng/mL and 0.06483 ng/mL and 0.06347 ng/mL | concentration in plasma samples, Accelerate [2, 5]: 0.06307 ng/mL and 0.062 ng/mL and 0.06825 ng/mL
3 | CC(=O)O [acetic acid] | – | – | – | – | – | – | – | – | – | – | – | – | – | – | – | – | – | – | – | – | Ratio (Area/IS Area) E ([3]; plasma at a high concentration level, plasma containing 0.5% of the acid, control plasma 0.624): 0; Ratio (Area/IS Area) NE ([3]; plasma at a high concentration level, plasma containing 0.5% of the acid, control plasma 1.522): 0; Ratio (Area/IS Area) DA ([3]; plasma at a high concentration level, plasma containing 0.5% of the acid, control plasma 2.27): 0; Ratio (Area/IS Area) E ([3]; plasma at a high concentration level, plasma containing 2.0% of the acid, control plasma 0.624): 0; Ratio (Area/IS Area) NE ([3]; plasma at a high concentration level, plasma containing 2.0% of the acid, control plasma 1.522): 0; Ratio (Area/IS Area) DA ([3]; plasma at a high concentration level, plasma containing 2.0% of the acid, control plasma 2.27): 0; Ratio (Area/IS Area) E ([3]; plasma at a low concentration level, plasma containing 0.5% of the acid, control plasma 0.079): 0; Ratio (Area/IS Area) NE ([3]; plasma at a low concentration level, plasma containing 0.5% of the acid, control plasma 0.219): 0; Ratio (Area/IS Area) DA ([3]; plasma at a low concentration level, plasma containing 0.5% of the acid, control plasma 0.233): 0; Ratio (Area/IS Area) E ([3]; plasma at a low concentration level, plasma containing 2.0% of the acid, control plasma 0.079): 0; Ratio (Area/IS Area) NE ([3]; plasma at a low concentration level, plasma containing 2.0% of the acid, control plasma 0.219): 0; Ratio (Area/IS Area) DA ([3]; plasma at a low concentration level, plasma containing 2.0% of the acid, control plasma 0.233): 0
